Tests used:
[1] = system: DOV13 (Ovarian Carcinoma); assay: Bliss excess, mean over the matrix (fraction); higher = more synergy
Method in brief: (§1)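 After 24 hours at 37°C and 5% CO2 in 1536-well plates, cells in DMEM/F12 or RPMI plus 10% FBS received two-drug dose matrices for 72 hours. Viability came from CellTiter-Glo 2.0 luminescence and was scaled as inhibition, anchored at 0 by vehicle wells and at 1 by blank wells. Combination Emax is taken as the second-highest inhibition in the matrix, and Bliss excess as the observed combination effect less EA + EB − EA·EB, with EA and EB the single-agent effects.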

[2] = system: COR-L95 (Small Cell Lung Carcinoma); assay: as above
Method in brief: as §1

[3] = system: G-292-Clone-A141B1 (Osteosarcoma); assay: as above
Method in brief: as §1

[4] = system: NCI-H1299 (Non-Small Cell Lung Carcinoma); assay: as above
Method in brief: as §1

[5] = system: SW1088 (Low Grade Glioma); assay: as above
Method in brief: as §1

[6] = system: OCI-AML2 (Acute Myeloid Leukemia); assay: as above
Method in brief: as §1

[7] = system: NCI-H211 (Small Cell Lung Carcinoma); assay: as above
Method in brief: as §1

[8] = system: DB (B-Cell Non-Hodgkin's Lymphoma); assay: as above
Method in brief: as §1

[9] = system: SN12C (Kidney Carcinoma); assay: as above
Method in brief: as §1

[10] = system: MDA-MB-157 (Breast Carcinoma); assay: as above
Method in brief: as §1

[11] = system: KATOIII (Gastric Carcinoma); assay: as above
Method in brief: as §1

[12] = system: KARPAS-1106P (B-Cell Non-Hodgkin's Lymphoma); assay: as above
Method in brief: as §1

[13] = system: MDA-MB-231 (Breast Carcinoma); assay: as above
Method in brief: as §1

[14] = system: NCI-H2595 (Mesothelioma); assay: combination Emax (second highest fraction inhibited in the dose matrix, 72 h); higher = more inhibition; extreme values may be limits of the assay
Method in brief: as §1

[15] = system: LS-513 (Colorectal Carcinoma); assay: as above
Method in brief: as §1

[16] = system: NALM-6 (B-Lymphoblastic Leukemia); assay: as above
Method in brief: as §1

[17] = system: G-292-Clone-A141B1 (Osteosarcoma); assay: as above
Method in brief: as §1

[18] = system: SW1088 (Low Grade Glioma); assay: as above
Method in brief: as §1

[19] = system: MFH-ino (Other Solid Carcinomas); assay: as above
Method in brief: as §1

[20] = system: SN12C (Kidney Carcinoma); assay: as above
Method in brief: as §1
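Wherever Bliss excess, mean over the matrix is given: after 72 h of two-drug dosing.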

Compound | Bliss excess [1] | Bliss excess [2] | Bliss excess [3] | Bliss excess [4] | Bliss excess [5] | Bliss excess [6] | Bliss excess [7] | Bliss excess [8] | Bliss excess [9] | Bliss excess [10] | Bliss excess [11] | Bliss excess [12] | Bliss excess [13] | combination Emax [14] | combination Emax [15] | combination Emax [16] | combination Emax [17] | combination Emax [18] | combination Emax [19] | combination Emax [20]
C[C@@H](Nc1cc(F)cc(F)c1)c1cc(C(=O)N(C)C)cc2c(=O)cc(N3CCOCC3)oc12 [AZD8186] + CC(=O)c1c(C)c2cnc(Nc3ccc(N4CCNCC4)cn3)nc2n(C2CCCC2)c1=O [Palbociclib] (first compound max 10 µM, 7x7, partner max 10 µM) | -0.224 | -0.0215 | -0.0001 | 0.0316 | 0.0658 | 0.132 | 0.2 | 0.0797 | 0.0245 | 0.0093 | 0.0615 | -0.04 | 0.0305 | 0.303 | 0.584 | 0.833 | 0.428 | 0.724 | 0.423 | 0.281
O=C(c1cc(Cc2n[nH]c(=O)c3ccccc23)ccc1F)N1CCN(C(=O)C2CC2)CC1 [Olaparib] + CC1(C)CCC(CN2CCN(c3ccc(C(=O)NS(=O)(=O)c4ccc(NCC5CCOCC5)c([N+](=O)[O-])c4)c(Oc4cnc5[nH]ccc5c4)c3)CC2)=C(c2ccc(Cl)cc2)C1 [Venetoclax] (first compound max 10 µM, 7x7, partner max 1 µM) | -0.0322 | 0.0791 | -0.0566 | -0.0527 | -0.0611 | 0.0964 | 0.0865 | 0.0522 | -0.0534 | -0.0406 | -0.0146 | -0.0169 | 0.0001 | 0.109 | 0.18 | 0.965 | 0.0374 | 0.136 | 0.118 | 0.206
C[C@@H](Oc1cc(-c2cnn(C3CCNCC3)c2)cnc1N)c1c(Cl)ccc(F)c1Cl [Crizotinib] + Cn1cnc2c(F)c(Nc3ccc(Br)cc3Cl)c(C(=O)NOCCO)cc21 [Selumetinib] (first compound max 10 µM, 7x7, partner max 10 µM) | -0.0732 | -0.0955 | -0.0223 | 0.0598 | -0.0256 | -0.0036 | -0.0327 | -0.0472 | -0.0062 | -0.0125 | -0.0081 | 0.0052 | 0.0323 | 0.292 | 1 | 0.905 | 0.794 | 0.596 | 0.542 | 0.244
Cc1cc2ncnn2cc1Nc1ncc2c(n1)n(C1CCOCC1)c(=O)n2C [AZD7648] + COc1cc([C@@H]2c3cc4c(cc3[C@@H](O[C@@H]3O[C@@H]5CO[C@@H](C)O[C@H]5[C@H](O)[C@H]3O)[C@H]3COC(=O)[C@H]23)OCO4)cc(OC)c1O [Etoposide] (first compound max 10 µM, 7x7, partner max 10 µM) | 0.0276 | 0.0315 | 0.0701 | 0.113 | 0.032 | 0.175 | 0.0313 | 0.0998 | 0.0424 | 0.0451 | -0.0224 | 0.0551 | 0.0776 | 0.446 | 0.662 | 1 | 0.321 | 0.574 | 0.665 | 0.641
N#Cc1cnc(Nc2cc(NC[C@H]3CNCCO3)c(C(F)(F)F)cn2)cn1 [SRA737] + CCc1c2c(nc3ccc(O)cc13)-c1cc3c(c(=O)n1C2)COC(=O)[C@]3(O)CC [SN-38] (first compound max 10 µM, 7x7, partner max 0.3 µM) | -0.0469 | -0.0191 | 0.0099 | 0.0179 | -0.0339 | -0.0348 | -0.0649 | -0.0472 | -0.0485 | 0.0125 | -0.0046 | -0.0918 | -0.0227 | 0.389 | 0.742 | 1 | 0.41 | 0.736 | 0.704 | 0.627
Cc1nc(-c2cn3c(n2)-c2ccc(-c4cnn(C(C)(C)C(N)=O)c4)cc2OCC3)n(C(C)C)n1 [Taselisib] + O=C(Nc1ccc2[nH]nc(-c3ccncc3)c2c1)[C@@H]1CCN(CC(=O)N2CCN(c3ccc(-c4ncccn4)cc3)CC2)C1 [SCH772984] (first compound max 10 µM, 7x7, partner max 5 µM) | 0.0568 | -0.0479 | -0.0258 | 0.0654 | -0.0867 | 0.132 | 0.126 | 0.0783 | 0.0003 | 0.0631 | -0.0189 | 0.0391 | 0.0595 | 0.393 | 0.975 | 0.752 | 0.945 | 0.72 | 0.659 | 0.387
Cc1c2c(nn1C)CSCc1cc(n(C)n1)CSc1cc(c3ccccc3c1)OCCCc1c(C(=O)O)n(C)c3c-2c(Cl)ccc13 [AZD5991] + CS(=O)(=O)CCNCc1ccc(-c2ccc3ncnc(Nc4ccc(OCc5cccc(F)c5)c(Cl)c4)c3c2)o1 [Lapatinib] (first compound max 1 µM, 7x7, partner max 10 µM) | 0.0072 | -0.0199 | -0.0185 | -0.0243 | -0.0137 | 0.0415 | -0.0118 | 0.0597 | 0.0035 | 0.0108 | -0.0787 | 0.0482 | -0.0852 | 0.361 | 0.822 | 0.761 | 0.264 | 0.36 | 0.234 | 0.249
O=C(c1cc(Cc2n[nH]c(=O)c3ccccc23)ccc1F)N1CCN(C(=O)C2CC2)CC1 [Olaparib] + CN(CC[C@H](CSC1=CC=CC=C1)NC2=C(C=C(C=C2)S(=O)(=O)NC(=O)C3=CC=C(C=C3)N4CCC(CC4)[C@H](C5=CC=CC=C5C6=CC=C(C=C6)Cl)O)S(=O)(=O)C(F)(F)F)CCO [AZD4320] (first compound max 10 µM, 7x7, partner max 1 µM) | 0.0543 | 0.0593 | -0.0275 | -0.0463 | -0.0518 | 0.041 | 0.0233 | -0.0863 | -0.0401 | -0.0094 | -0.0047 | -0.035 | -0.071 | 0.228 | 0.452 | 0.974 | 0.419 | 0.147 | 0.108 | 0.18
CS(=O)(=O)CCNCc1ccc(-c2ccc3ncnc(Nc4ccc(OCc5cccc(F)c5)c(Cl)c4)c3c2)o1 [Lapatinib] + Cn1cnc2c(F)c(Nc3ccc(Br)cc3Cl)c(C(=O)NOCCO)cc21 [Selumetinib] (first compound max 10 µM, 7x7, partner max 10 µM) | -0.0166 | -0.0382 | -0.0566 | 0.0085 | -0.0524 | -0.0296 | 0.0084 | 0.0388 | -0.0375 | -0.0598 | -0.0223 | 0.0436 | -0.0236 | 0.25 | 0.949 | 0.847 | 0.192 | 0.349 | 0.462 | 0.28
C=CCn1c(=O)c2cnc(Nc3ccc(N4CCN(C)CC4)cc3)nc2n1-c1cccc(C(C)(C)O)n1 [AZD1775] + CCc1c2c(nc3ccc(O)cc13)-c1cc3c(c(=O)n1C2)COC(=O)[C@]3(O)CC [SN-38] (first compound max 1 µM, partner max 0.3 µM) | -0.0262 | -0.103 | 0.023 | -0.0071 | -0.0641 | -0.0278 | -0.0576 | -0.0366 | 0.0364 | 0.0495 | -0.0948 | -0.0946 | 0.0031 | 0.318 | 0.771 | 1 | 0.464 | 0.712 | 0.737 | 0.587
Cc1c2c(nn1C)CSCc1cc(n(C)n1)CSc1cc(c3ccccc3c1)OCCCc1c(C(=O)O)n(C)c3c-2c(Cl)ccc13 [AZD5991] + Nc1ccn([C@@H]2O[C@H](CO)[C@@H](O)C2(F)F)c(=O)n1 [Gemcitabine] (first compound max 1 µM, 7x7, partner max 0.3 µM) | -0.0605 | -0.0274 | -0.0587 | 0.006 | -0.0666 | 0.0516 | 0.0489 | 0.06 | -0.0232 | -0.0145 | 0.0444 | -0.0216 | -0.0947 | 0.464 | 0.814 | 0.928 | 0.152 | 0.197 | 0.725 | 0.422
N#Cc1cnc(Nc2cc(NC[C@H]3CNCCO3)c(C(F)(F)F)cn2)cn1 [SRA737] + C=CCn1c(=O)c2cnc(Nc3ccc(N4CCN(C)CC4)cc3)nc2n1-c1cccc(C(C)(C)O)n1 [AZD1775] (first compound max 10 µM, partner max 1 µM) | 0.132 | 0.0077 | -0.009 | 0.0448 | 0.0681 | 0.071 | 0.169 | 0.0626 | -0.0184 | 0.119 | -0.0327 | 0.0143 | 0.0607 | 0.236 | 0.84 | 0.969 | 0.239 | 0.77 | 0.441 | 0.212
C[C@@H]1COCCN1c1cc(C2([S@](C)(=N)=O)CC2)nc(-c2ccnc3[nH]ccc23)n1 [AZD6738] + Nc1ccn([C@@H]2O[C@H](CO)[C@@H](O)C2(F)F)c(=O)n1 [Gemcitabine] (first compound max 10 µM, 7x7, partner max 0.3 µM) | 0.0205 | -0.0359 | 0.0421 | 0.0963 | -0.0399 | 0.0351 | 0.0304 | -0.0172 | 0.0577 | 0.0295 | 0.0057 | 0.0614 | 0.0736 | 0.374 | 0.824 | 0.974 | 0.413 | 0.731 | 0.716 | 0.779
